Among the data in PubChem BioAssay (NCI) are GI50 and TGI values, retold here.

Among the test systems are HCC-2998 colon; NCI/ADR-RES ovarian; NCI-H226 lung; NCI-H460 lung; RXF 393 renal; NCI-H23 lung; UACC-257 melanoma; HS 578T breast.
Test in all cases: growth of human tumour cells (NCI), 48 h

Molecules are shown by their SMILES.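 Briefly, cells in 96-well plates were exposed to five compound concentrations for 48 h, and endpoints were estimated by linear interpolation. GI50 = concentration required for 50% inhibition of growth. TGI is the concentration that stops growth completely.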

With `CC1(C)Cc2c(Br)c(Br)c(Br)c(OCC(O)CN3CCOCC3)c2O1` (stereo unspecified), the GI50 in the assay with HCC-2998 colon was 14100 nM; in the assay on NCI/ADR-RES ovarian, 16.1 µM; in the assay with NCI-H226 lung, 15.2 µM; in the assay with NCI-H460 lung it was 9290 nM; in the assay on RXF 393 renal it was 3.69 µM; in the assay on NCI-H23 lung it was 13.5 µM. Moreover, the GI50 in the assay with UACC-257 melanoma is 19100 nM; with HS 578T breast, 17.2 µM. Besides, the TGI in the assay on HCC-2998 colon was 28.8 µM; in the assay with NCI/ADR-RES ovarian, 34.7 µM; with NCI-H226 lung, 34.9 µM; in the assay with NCI-H460 lung it was 25.8 µM; with RXF 393 renal, 13 µM; in the assay on NCI-H23 lung, 27.6 µM. For the same compound, the figures for the TGI in the assay on UACC-257 melanoma and with HS 578T breast were 37.8 µM and 47.4 µM, respectively.
For the compound `Cc1ccc(C[P+](c2ccccc2)(c2ccccc2)c2ccccc2)cc1`, the GI50 is 441 nM with HCC-2998 colon; 37.7 µM with NCI/ADR-RES ovarian; 1.73 µM in the assay with NCI-H226 lung; 760 nM with NCI-H460 lung; 3.24 µM with RXF 393 renal; 0.554 µM in the assay on NCI-H23 lung. Also, the GI50 is 267 nM in the assay with UACC-257 melanoma and 0.366 µM in the assay with HS 578T breast. Also, the TGI with HCC-2998 colon is 6.41 µM; in the assay with NCI/ADR-RES ovarian, more than 100 µM; in the assay with NCI-H226 lung it was more than 25.8 µM; in the assay with NCI-H460 lung it was 6.99 µM; in the assay with RXF 393 renal, 20.3 µM; in the assay with NCI-H23 lung it was 5.46 µM. The values for the TGI with UACC-257 melanoma and in the assay with HS 578T breast were 3.56 µM and 3.11 µM, respectively.
With `CC(C)=CC1CC(C)C2(CCC3(C)CC4C(C(=O)CC4(C)O)/C(C=O)=C\CC32)O1` (stereo unspecified), the TGI in the assay with HCC-2998 colon is 0.328 µM; with NCI/ADR-RES ovarian it was 0.443 µM; in the assay with NCI-H226 lung, 0.147 µM; in the assay on NCI-H460 lung, 0.283 µM; in the assay on RXF 393 renal, 0.098 µM; in the assay on NCI-H23 lung it was 0.264 µM. Moreover, the TGI in the assay on UACC-257 melanoma was found to be 0.28 µM; in the assay on HS 578T breast it was 0.421 µM.
In the case of `COc1ccc2[nH]cc(-c3nc(-c4c[nH]c5ccncc45)cs3)c2c1`, the GI50 in the assay with HCC-2998 colon is 1870 nM; in the assay with NCI/ADR-RES ovarian, 2.48 µM; in the assay on NCI-H226 lung, 2.36 µM; in the assay on NCI-H460 lung it was 1840 nM; in the assay with RXF 393 renal, 1.74 µM; in the assay on NCI-H23 lung, 1.76 µM. In addition, the GI50 in the assay on UACC-257 melanoma was 1930 nM; in the assay on HS 578T breast, 2.15 µM. The TGI in the assay on HCC-2998 colon worked out at 3.32 µM; with NCI/ADR-RES ovarian, 6.84 µM; in the assay with NCI-H226 lung it was 6.58 µM; in the assay with NCI-H460 lung, 3.73 µM; in the assay with RXF 393 renal, 3.33 µM; in the assay with NCI-H23 lung it was 3.85 µM. In addition, the values for the TGI in the assay on UACC-257 melanoma and in the assay with HS 578T breast were 3.51 µM and 4.95 µM, respectively.
Turning to `O=C1CC/C(=C\COc2ccc3ccc(=O)oc3c2)O1`, the GI50 in the assay with HCC-2998 colon was 17000 nM; with NCI/ADR-RES ovarian, 14.9 µM; with NCI-H226 lung, 22.4 µM; in the assay on NCI-H460 lung, 16800 nM; with RXF 393 renal, 8.41 µM; in the assay with NCI-H23 lung, 11.7 µM. In addition, the values for the GI50 in the assay on UACC-257 melanoma and with HS 578T breast were 13600 nM and 11.7 µM, respectively. Also, the TGI in the assay on HCC-2998 colon was 35.6 µM; in the assay with NCI/ADR-RES ovarian it was 43 µM; in the assay with NCI-H226 lung it was 83.1 µM; with NCI-H460 lung, more than 100 µM; with RXF 393 renal it was 31.9 µM; in the assay on NCI-H23 lung it was 30 µM. Besides, the values for the TGI with UACC-257 melanoma and in the assay on HS 578T breast were 30 µM and 81.7 µM, respectively.
As for `COc1cc2ncn(-c3cc(OCc4ccccc4S(C)(=O)=O)c(C#N)s3)c2cc1OC`, the GI50 is more than 25000 nM with HCC-2998 colon; more than 25 µM with NCI/ADR-RES ovarian; more than 25 µM with NCI-H226 lung; more than 25000 nM in the assay on NCI-H460 lung; more than 14.9 µM with RXF 393 renal; more than 25 µM with NCI-H23 lung. Also, the GI50 in the assay with UACC-257 melanoma is more than 25000 nM; in the assay with HS 578T breast, more than 17.9 µM. Also, the TGI in the assay on HCC-2998 colon, in the assay on NCI/ADR-RES ovarian, in the assay on NCI-H226 lung, in the assay on NCI-H460 lung, in the assay on RXF 393 renal and in the assay with NCI-H23 lung was more than 25 µM in each case. Moreover, the TGI in the assay with UACC-257 melanoma and in the assay with HS 578T breast was more than 25 µM throughout.
For `CN1CCC(n2[nH]c(-c3ccccc3)c(Cc3ccccc3)c2=O)CC1`, the TGI in the assay on HCC-2998 colon, in the assay with NCI/ADR-RES ovarian, with NCI-H226 lung, in the assay with NCI-H460 lung, in the assay on RXF 393 renal and in the assay on NCI-H23 lung was more than 100 µM throughout. Moreover, the TGI in the assay with UACC-257 melanoma and in the assay with HS 578T breast was more than 100 µM in each case.
`COc1cc(-c2n/c(=C\c3c(O)[nH]c4ccccc34)cc3c2=Nc2ccccc2-3)cc(OC)c1OC`: the GI50 with HCC-2998 colon was 2320 nM; in the assay with NCI/ADR-RES ovarian, 1.62 µM; in the assay with NCI-H226 lung it was 4.23 µM; in the assay with NCI-H460 lung, 334 nM; with RXF 393 renal, 0.436 µM; in the assay on NCI-H23 lung it was 0.39 µM. The GI50 in the assay on UACC-257 melanoma is 1730 nM; in the assay with HS 578T breast, 0.418 µM. In addition, the TGI with HCC-2998 colon is 6.48 µM; in the assay on NCI/ADR-RES ovarian, more than 31.5 µM; with NCI-H226 lung, more than 100 µM; in the assay on NCI-H460 lung, 1.76 µM; in the assay with RXF 393 renal, 5.34 µM; in the assay with NCI-H23 lung, more than 100 µM. Also, the results for the TGI with UACC-257 melanoma and with HS 578T breast were more than 100 µM and 68 µM, respectively.
On to `O=[N+]([O-])c1ccc(N=Nc2c(O)[nH]c3ccccc23)cc1`, for which the TGI is more than 100 µM in the assay with HCC-2998 colon; 48.5 µM in the assay on NCI/ADR-RES ovarian; 51.5 µM in the assay on NCI-H226 lung; more than 100 µM in the assay with NCI-H460 lung; 35.4 µM in the assay on RXF 393 renal; more than 100 µM in the assay with NCI-H23 lung. For the same compound, the TGI was more than 60.1 µM in the assay with UACC-257 melanoma and 51.6 µM in the assay with HS 578T breast.
For the compound `Cc1cc2nc3c4cccc(O)c4n(CCN(C)C)c3nc2cc1C`, the GI50 with HCC-2998 colon was 1460 nM; in the assay with NCI/ADR-RES ovarian it was 1.97 µM; in the assay on NCI-H226 lung, 3.72 µM; in the assay with NCI-H460 lung, 818 nM; in the assay with RXF 393 renal, 2.48 µM; in the assay with NCI-H23 lung it was 3.07 µM. The values for the GI50 in the assay with UACC-257 melanoma and in the assay on HS 578T breast were 2000 nM and 3.32 µM, respectively. For the same compound, the TGI in the assay on HCC-2998 colon was 2.99 µM; in the assay with NCI/ADR-RES ovarian, 11.4 µM; in the assay on NCI-H226 lung, 52.9 µM; in the assay on NCI-H460 lung it was 6.13 µM; with RXF 393 renal, 8.98 µM; in the assay with NCI-H23 lung, 16 µM. The TGI with UACC-257 melanoma stood at 4.58 µM; with HS 578T breast, 31.8 µM.
